The values that follow come from US10975056B2 (GlaxoSmithKline Intellectual Property Development Limited, priority 2016, dated 2021).

Where two headings read alike, the source gives them in different places. Some results are limits rather than exact numbers.

Assay [1] relates to patients with sickle cell anemia, sickle cell disease and beta-thalassemia. The settings on record: limited set of clinical studies; cited from earlier work.
The test system of assay [2] is erythroid progenitor cells. The conditions noted are these: cited from earlier work.
The subject of assay [3] is MV-4-11 AML cells. Briefly: MV-4-11 cell proliferation assay (CellTiter-Glo, 6 days). The class given is cell-based. The settings on record: Homo sapiens, MV4-11, 144 h; 6 days treatment; binning as pXC50; read-out: MV4-11 Anti-proliferative activity (EC50 category). The method, then:
MV-4-11 Anti-Proliferative Activity (pEC50 Category)
Cell proliferation assay. Optimal cell seeding density was determined empirically for MV-4-11 AML cells by examining the growth of a wide range of seeding densities in a 384-well format to identify conditions that permitted maximal and continued proliferation for 6 days. MV-4-11 cells were plated in duplicate plates 24 hours before treatment with a 20-point two-fold dilution series of compound or 0.15% DMSO. Plates were incubated for 6 days at 37° C. in 5% CO2. Cells were then lysed with CellTiter-Glo (CTG) (Promega) and chemiluminescent signal was detected with an appropriate microplate reader. In addition, an untreated plate of cells was harvested at the time of compound addition (T0) to quantify the initial cell density. CTG values obtained after 6 days of treatment were expressed as a percent of the T0 value and plotted against compound concentration. Data were fit with a four parameter equation to generate a concentration response curve from which growth IC50 values were calculated.

Assay [4] concerns the target DNMT3B (Homo sapiens (Human), UniProt Q9UBC3). Briefly: DNMT3B breaklight assay. The settings on record: read-out: DNMT3B Breaklight IC50. The format is biochemical.
Assay [5] addresses DNMT1 (Homo sapiens, UniProt P26358). Briefly: DNMT1 biochemical activity, breaklight assay and/or SPA assay.
Assay [6] deals with human DNMT3a/3l (Homo sapiens (Human), UniProt Q9Y6K1). In words: DNMT3a/3l breaklight assay. The format is biochemical. The conditions noted are these: read-out: DNMT3A Breaklight IC50. The method, then: DNMT3a/3l Breakliqht Assay
DNMT3a/3l breaklight in vitro assays were conducted in a total volume of 50 μl in a standard 384 well format, using black non-binding surface microplates (Corning #3575). […] Negative control wells used 5 μl of DNMT3a/3l and 5 μl of oligonucleotide but also included 200 μM SAH. All reagents were made up in 1× assay buffer (20 mM Tris pH 7.4, 100 mM NaCl, 1.5 mM EDTA, 0.1 mM MgCl2, 1 mM CHAPS and 1 mM DTT). The reaction was incubated at 37° C. for 90 min and then stopped with the addition of 40 μl detection reagent. Detection reagent, made up in 1× Gla assay buffer (20 mM Tris pH 8.0, 80 mM NaCl, 0.75 mM MgCl2, 0.01% Triton X100 and 1 mM DTT) has a final concentration of 200 μM SAH (Sigma #A9384) and 0.0008 units/μl Gla1 restriction endonuclease (Sibenzyme #E494). Following addition of the detection reagent the plate was incubated in the dark at room temperature for 5 hr. Fluorescence intensity was then measured on the PHERAstar FS (BMG Labtech) at Ex 485 nm and Em 520 nm, with a gain of 400 and an integration time of 100 ms.

Sequence of DNMT1 (P26358 whole entry, looked up): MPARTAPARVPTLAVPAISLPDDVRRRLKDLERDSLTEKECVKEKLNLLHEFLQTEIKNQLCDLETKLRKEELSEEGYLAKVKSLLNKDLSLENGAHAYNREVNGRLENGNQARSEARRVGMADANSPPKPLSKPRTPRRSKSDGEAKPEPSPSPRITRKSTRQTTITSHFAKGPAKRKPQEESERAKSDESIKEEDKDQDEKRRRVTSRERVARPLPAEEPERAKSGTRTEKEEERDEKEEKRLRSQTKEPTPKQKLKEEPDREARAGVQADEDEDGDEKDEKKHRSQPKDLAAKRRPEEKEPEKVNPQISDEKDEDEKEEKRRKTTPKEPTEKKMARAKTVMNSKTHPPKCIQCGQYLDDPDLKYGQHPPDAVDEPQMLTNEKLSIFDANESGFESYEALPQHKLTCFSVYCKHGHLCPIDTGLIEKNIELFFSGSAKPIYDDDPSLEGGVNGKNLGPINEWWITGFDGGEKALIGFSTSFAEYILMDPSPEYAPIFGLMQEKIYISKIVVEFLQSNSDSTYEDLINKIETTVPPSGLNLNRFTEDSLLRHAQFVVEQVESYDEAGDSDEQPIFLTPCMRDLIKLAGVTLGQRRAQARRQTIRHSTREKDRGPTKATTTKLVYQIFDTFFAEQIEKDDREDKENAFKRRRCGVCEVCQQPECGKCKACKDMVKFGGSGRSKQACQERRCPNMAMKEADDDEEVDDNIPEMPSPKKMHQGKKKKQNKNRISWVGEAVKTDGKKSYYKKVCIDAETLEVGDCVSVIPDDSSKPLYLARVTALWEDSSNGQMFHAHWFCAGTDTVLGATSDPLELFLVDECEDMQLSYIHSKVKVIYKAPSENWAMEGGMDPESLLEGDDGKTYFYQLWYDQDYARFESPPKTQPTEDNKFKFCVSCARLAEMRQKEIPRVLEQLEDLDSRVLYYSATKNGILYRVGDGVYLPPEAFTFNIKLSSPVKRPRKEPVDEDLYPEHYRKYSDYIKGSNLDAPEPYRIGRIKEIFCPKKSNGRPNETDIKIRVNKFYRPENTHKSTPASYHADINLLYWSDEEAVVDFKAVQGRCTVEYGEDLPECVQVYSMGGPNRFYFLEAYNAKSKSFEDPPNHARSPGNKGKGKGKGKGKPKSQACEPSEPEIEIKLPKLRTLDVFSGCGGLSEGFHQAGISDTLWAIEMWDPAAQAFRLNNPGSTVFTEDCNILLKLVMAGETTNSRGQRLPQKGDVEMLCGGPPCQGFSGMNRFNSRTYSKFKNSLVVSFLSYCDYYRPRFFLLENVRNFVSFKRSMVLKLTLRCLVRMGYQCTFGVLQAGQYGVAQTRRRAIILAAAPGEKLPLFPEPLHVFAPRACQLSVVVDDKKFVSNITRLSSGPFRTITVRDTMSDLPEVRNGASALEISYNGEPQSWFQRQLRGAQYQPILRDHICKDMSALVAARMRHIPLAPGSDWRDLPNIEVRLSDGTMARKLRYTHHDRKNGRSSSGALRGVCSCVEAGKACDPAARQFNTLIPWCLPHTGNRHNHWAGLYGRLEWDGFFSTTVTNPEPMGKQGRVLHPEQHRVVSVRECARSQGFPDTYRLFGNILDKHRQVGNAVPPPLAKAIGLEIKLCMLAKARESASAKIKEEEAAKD
Sequence of human DNMT3a/3l (Q9Y6K1 whole entry, looked up): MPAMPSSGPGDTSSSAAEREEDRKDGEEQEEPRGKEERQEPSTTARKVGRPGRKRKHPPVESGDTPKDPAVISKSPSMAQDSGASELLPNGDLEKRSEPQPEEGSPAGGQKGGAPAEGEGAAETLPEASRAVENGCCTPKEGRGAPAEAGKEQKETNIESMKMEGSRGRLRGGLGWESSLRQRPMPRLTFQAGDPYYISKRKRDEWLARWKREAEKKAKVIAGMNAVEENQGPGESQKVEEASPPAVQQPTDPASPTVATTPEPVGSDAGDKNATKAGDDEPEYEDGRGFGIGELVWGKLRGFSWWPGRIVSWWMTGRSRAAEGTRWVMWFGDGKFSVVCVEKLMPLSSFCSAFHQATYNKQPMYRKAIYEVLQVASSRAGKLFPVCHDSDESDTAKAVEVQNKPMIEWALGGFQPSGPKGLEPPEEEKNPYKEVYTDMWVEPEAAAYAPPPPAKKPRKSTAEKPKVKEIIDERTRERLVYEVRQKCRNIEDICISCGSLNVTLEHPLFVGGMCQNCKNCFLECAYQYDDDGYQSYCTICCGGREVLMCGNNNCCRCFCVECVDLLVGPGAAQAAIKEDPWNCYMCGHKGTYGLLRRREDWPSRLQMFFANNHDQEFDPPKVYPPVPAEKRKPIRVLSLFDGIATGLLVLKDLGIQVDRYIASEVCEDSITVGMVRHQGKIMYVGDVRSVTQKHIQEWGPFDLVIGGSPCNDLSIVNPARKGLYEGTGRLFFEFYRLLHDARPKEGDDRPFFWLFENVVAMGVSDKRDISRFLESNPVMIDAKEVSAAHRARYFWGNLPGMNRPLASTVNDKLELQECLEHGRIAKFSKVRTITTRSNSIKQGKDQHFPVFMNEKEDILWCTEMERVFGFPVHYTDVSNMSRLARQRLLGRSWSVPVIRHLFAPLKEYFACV
Sequence of human DNMT3a/3l (Q9UJW3 whole entry partner, looked up): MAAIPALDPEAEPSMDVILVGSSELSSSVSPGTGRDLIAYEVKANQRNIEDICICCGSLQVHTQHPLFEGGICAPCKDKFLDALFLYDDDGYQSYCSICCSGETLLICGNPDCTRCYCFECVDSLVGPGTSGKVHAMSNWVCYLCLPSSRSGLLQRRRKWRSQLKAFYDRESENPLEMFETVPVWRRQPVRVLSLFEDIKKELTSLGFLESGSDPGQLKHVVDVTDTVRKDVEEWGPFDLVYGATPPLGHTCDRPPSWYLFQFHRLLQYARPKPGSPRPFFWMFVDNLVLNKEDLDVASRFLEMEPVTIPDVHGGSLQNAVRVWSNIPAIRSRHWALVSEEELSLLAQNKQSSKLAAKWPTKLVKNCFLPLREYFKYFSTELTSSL

`Nc1ncn([C@H]2C[C@H](O)[C@@H](CO)O2)c(=O)n1` [5-aza-2′-deoxycytidine (decitabine), 5-aza-2′-deoxycytidine]: the “fetal hemoglobin in patients” value in assay [1] was “caused increases in fetal hemoglobin”. Besides, in assay [2], the “induction of fetal hemoglobin” value is given as “known inducers of fetal hemoglobin”.

With `Nc1ncn([C@@H]2O[C@H](CO)[C@@H](O)[C@H]2O)c(=O)n1` [5-azacytidine], in assay [1], the “fetal hemoglobin in patients” value is “caused increases in fetal hemoglobin”. Besides, in assay [2], the “induction of fetal hemoglobin” value is “known inducers of fetal hemoglobin”.

With `N#Cc1c(SC(C(N)=O)c2ccccc2)nc(N2CCOCC2)c(C#N)c1C1CC1` (stereo not drawn) [Example 130, 2-[(3,5-Dicyano-4-cyclopropyl-6-morpholino-2-pyridyl)sulfanyl]-2-phenyl-acetamide], the EC50 in assay [3] is 1 to 31.6 µM. Besides, the IC50 in assay [4] was above 500 µM; in assay [5] (binned activity in either the breaklight or the SPA assay, read-out: DNMT1 BioChemical (pIC50 category) (converted)), 0.316 to 1 µM; in assay [5] (breaklight assay and/or SPA assay, repeated experimental runs, read-out: average pIC50 against DNMT1 (converted)) it was 0.316 to 1 µM; in assay [6], above 500 µM.
